# Test results as given in ChEMBL document CHEMBL1140398, “New dual inhibitors of EGFR and HER2 protein tyrosine kinases” (Bioorg Med Chem Lett, 2005).
# Tests used:
# [1] = molecular target: Receptor tyrosine-protein kinase erbB-2 (Homo sapiens, UniProt P04626); experiment: In vitro inhibitory concentration against HER2 cytoplasmic sequence expressed in Sf9 cells
# [2] = molecular target: Epidermal growth factor receptor (Homo sapiens, UniProt P00533); experiment: In vitro inhibitory concentration against EGFR cytoplasmic sequence expressed in Sf9 cells
# Epidermal growth factor receptor, sequence (P00533 whole entry): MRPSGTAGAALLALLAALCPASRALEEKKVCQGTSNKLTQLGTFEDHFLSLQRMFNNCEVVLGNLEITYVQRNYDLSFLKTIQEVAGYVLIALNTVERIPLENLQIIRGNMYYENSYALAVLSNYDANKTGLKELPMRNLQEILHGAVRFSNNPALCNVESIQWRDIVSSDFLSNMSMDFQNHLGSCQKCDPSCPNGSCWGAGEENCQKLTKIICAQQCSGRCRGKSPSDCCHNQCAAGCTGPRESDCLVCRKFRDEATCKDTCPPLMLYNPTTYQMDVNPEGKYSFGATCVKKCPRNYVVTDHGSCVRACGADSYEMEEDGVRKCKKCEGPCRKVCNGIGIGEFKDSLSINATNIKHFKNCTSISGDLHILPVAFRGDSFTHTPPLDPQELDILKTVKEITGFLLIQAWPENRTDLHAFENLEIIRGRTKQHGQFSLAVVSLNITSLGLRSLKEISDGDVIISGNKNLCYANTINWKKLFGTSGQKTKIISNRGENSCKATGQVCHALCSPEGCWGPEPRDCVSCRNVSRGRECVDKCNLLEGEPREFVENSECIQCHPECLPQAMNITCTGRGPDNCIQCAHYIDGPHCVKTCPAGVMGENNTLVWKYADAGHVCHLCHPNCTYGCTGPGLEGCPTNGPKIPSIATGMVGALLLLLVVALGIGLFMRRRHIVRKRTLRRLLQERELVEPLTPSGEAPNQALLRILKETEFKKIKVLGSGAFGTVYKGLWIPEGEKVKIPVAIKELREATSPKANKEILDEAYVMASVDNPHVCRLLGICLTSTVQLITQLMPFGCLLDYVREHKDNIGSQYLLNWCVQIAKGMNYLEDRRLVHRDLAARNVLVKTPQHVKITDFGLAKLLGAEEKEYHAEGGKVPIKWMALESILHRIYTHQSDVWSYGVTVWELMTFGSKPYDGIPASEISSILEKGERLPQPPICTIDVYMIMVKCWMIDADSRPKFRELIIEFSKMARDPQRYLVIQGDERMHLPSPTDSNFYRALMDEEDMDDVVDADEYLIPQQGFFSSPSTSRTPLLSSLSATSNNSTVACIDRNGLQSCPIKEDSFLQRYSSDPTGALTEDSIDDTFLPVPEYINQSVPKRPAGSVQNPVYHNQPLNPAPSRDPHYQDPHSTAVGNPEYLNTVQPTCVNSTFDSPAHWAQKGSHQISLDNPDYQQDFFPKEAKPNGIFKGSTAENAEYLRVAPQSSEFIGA
# [3] = molecular target: MAP kinase-activated protein kinase 2 (Homo sapiens, UniProt P49137); experiment: Inhibitory concentration against MAPKAP kinase 2 cytoplasmic sequence; Reported as mean (variability <15%)
# MAP kinase-activated protein kinase 2, sequence (P49137 whole entry): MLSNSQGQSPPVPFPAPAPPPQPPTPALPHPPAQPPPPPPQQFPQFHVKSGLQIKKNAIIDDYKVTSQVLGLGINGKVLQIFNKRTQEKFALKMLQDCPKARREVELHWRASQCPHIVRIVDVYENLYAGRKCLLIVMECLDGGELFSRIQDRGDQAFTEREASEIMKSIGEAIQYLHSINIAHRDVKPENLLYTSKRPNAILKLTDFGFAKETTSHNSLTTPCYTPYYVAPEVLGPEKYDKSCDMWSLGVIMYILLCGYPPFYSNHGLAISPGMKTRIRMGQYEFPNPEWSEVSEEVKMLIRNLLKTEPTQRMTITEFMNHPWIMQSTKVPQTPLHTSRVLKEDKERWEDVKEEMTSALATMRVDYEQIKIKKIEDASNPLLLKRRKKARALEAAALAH
# Focal adhesion kinase 1 = Focal adhesion kinase 1 (Homo sapiens, UniProt Q05397); experiment: Inhibitory concentration against FAK cytoplasmic sequence; Reported as mean (variability <15%)
# Focal adhesion kinase 1, sequence (Q05397 whole entry): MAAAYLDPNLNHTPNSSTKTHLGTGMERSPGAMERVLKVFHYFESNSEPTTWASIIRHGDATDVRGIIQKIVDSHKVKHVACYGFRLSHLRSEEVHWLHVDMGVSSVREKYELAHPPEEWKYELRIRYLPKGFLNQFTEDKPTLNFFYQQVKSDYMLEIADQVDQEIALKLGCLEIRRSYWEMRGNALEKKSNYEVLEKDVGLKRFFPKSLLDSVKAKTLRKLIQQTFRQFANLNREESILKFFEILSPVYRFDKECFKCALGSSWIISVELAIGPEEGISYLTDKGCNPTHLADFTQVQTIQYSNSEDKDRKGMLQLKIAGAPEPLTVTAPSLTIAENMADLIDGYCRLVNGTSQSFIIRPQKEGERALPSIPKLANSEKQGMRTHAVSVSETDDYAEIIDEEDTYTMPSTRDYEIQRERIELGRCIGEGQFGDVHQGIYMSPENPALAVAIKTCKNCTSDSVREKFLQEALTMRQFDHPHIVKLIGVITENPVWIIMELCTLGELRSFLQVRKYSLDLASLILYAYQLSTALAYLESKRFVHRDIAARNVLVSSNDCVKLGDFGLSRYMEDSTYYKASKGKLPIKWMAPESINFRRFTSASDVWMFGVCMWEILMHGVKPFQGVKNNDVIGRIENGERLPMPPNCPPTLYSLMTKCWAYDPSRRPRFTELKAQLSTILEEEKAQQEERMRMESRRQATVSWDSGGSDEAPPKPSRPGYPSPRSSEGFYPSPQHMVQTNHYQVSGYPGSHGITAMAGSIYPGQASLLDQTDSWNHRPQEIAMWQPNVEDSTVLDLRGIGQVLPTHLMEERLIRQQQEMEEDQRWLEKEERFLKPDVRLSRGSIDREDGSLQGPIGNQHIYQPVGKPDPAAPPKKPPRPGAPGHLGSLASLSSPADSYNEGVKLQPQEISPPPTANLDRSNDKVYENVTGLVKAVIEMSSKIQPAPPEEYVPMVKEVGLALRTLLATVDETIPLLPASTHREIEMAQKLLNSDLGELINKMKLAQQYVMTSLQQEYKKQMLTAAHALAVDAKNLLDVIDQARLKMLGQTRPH
# [4] = molecular target: Mitogen-activated protein kinase 14 (Homo sapiens, UniProt Q16539); experiment: Inhibitory concentration against p38 cytoplasmic sequence; Reported as mean (variability <15%)
# Mitogen-activated protein kinase 14, sequence (Q16539 whole entry): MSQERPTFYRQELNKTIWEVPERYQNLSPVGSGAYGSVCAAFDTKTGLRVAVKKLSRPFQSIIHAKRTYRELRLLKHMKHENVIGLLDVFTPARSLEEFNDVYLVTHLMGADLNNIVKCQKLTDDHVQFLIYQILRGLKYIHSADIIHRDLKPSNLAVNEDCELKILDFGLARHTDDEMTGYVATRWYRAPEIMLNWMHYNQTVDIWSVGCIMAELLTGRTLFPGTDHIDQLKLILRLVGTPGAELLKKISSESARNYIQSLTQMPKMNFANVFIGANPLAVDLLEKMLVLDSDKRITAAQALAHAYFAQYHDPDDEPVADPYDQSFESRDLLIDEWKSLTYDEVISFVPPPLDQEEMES
# [5] = molecular target: Hepatocyte growth factor receptor (Homo sapiens, UniProt P08581); experiment: Inhibitory concentration against Met cytoplasmic sequence; Reported as mean (variability <15%)
# [6] = molecular target: Insulin-like growth factor 1 receptor (Homo sapiens, UniProt P08069); experiment: Inhibitory concentration against IGF-1R cytoplasmic sequence; Reported as mean (variability <15%)
# Receptor tyrosine-protein kinase erbB-2, sequence (P04626 whole entry): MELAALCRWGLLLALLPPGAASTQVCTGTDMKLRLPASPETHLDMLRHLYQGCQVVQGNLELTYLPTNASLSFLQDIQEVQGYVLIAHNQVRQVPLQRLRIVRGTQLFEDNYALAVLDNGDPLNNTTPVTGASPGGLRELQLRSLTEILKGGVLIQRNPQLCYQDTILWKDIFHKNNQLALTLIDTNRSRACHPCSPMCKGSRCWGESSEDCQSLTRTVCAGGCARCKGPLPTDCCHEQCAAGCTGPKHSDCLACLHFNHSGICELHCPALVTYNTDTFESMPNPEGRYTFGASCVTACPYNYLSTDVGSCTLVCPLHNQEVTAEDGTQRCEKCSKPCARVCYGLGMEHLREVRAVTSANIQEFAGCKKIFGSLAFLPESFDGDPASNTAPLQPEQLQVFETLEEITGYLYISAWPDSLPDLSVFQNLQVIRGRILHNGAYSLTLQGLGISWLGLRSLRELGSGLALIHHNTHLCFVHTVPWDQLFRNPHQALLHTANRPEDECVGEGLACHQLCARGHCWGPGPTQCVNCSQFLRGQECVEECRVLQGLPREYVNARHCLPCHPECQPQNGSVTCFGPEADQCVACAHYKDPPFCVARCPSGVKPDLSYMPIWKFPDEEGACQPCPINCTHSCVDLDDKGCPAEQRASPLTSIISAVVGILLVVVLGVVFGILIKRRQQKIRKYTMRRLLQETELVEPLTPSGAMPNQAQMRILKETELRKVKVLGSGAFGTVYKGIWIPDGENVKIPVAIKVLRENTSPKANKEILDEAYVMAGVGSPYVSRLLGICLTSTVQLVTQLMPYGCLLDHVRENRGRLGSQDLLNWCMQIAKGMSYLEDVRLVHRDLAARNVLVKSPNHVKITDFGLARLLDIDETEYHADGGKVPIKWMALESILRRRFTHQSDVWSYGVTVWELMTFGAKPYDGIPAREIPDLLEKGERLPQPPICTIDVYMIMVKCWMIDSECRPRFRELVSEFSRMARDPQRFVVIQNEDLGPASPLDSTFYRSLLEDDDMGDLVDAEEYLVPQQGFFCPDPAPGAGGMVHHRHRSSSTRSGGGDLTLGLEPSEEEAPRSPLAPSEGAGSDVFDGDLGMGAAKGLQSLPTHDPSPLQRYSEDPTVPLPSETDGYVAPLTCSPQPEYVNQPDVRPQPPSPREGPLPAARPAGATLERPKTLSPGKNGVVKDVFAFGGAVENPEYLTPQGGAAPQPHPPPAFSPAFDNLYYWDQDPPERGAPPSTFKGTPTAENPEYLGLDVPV
IC50 [1],IC50 [2],SMILES,further results
240 nM,170 nM,CCc1c(C(=O)OCCCn2ccnc2)cn2ncnc(Nc3ccc4c(cnn4Cc4ccccc4)c3)c12,
2400 nM,1100 nM,CCc1c(CC(N)=O)cn2ncnc(Nc3ccc4c(cnn4Cc4ccccc4)c3)c12,
110 nM,120 nM,CCc1c(C(N)=O)cn2ncnc(Nc3ccc4c(cnn4Cc4ccccc4)c3)c12,
2800 nM,90 nM,CCOC(=O)c1cn2ncnc(Nc3ccc(F)c(Cl)c3)c2c1CC,
1400 nM,950 nM,CCOCc1cn2ncnc(Nc3ccc4c(cnn4Cc4ccccc4)c3)c2c1CC,
180 nM,120 nM,CCOC(=O)c1cn2ncnc(Nc3ccc4c(cnn4Cc4ccccc4)c3)c2c1CC,
> 25000 nM,> 25000 nM,CCOC(=O)c1cn2ncnc(Nc3ccc4c(cnn4Cc4ccccc4)c3)c2c1Cc1ccccc1,
130 nM,70 nM,CCc1c(C(=O)NC)cn2ncnc(Nc3ccc4c(cnn4Cc4ccccc4)c3)c12,
210 nM,200 nM,CCOC(=O)c1cn2ncnc(Nc3ccc4c(cnn4Cc4ccccc4)c3)c2c1C(C)C,
9700 nM,7400 nM,CCNCc1cn2ncnc(Nc3ccc4c(cnn4Cc4ccccc4)c3)c2c1CC,
500 nM,200 nM,CCc1c(C(=O)N(C)C)cn2ncnc(Nc3ccc4c(cnn4Cc4ccccc4)c3)c12,
170 nM,210 nM,CCc1c(NC(=O)OCc2ccccc2)cn2ncnc(Nc3ccc4c(cnn4Cc4ccccc4)c3)c12,
680 nM,1600 nM,CCc1c(CC(=O)O)cn2ncnc(Nc3ccc4c(cnn4Cc4ccccc4)c3)c12,
730 nM,490 nM,CCc1c(CO)cn2ncnc(Nc3ccc4c(cnn4Cc4ccccc4)c3)c12,
390 nM,120 nM,CCOC(=O)c1cc2c(Nc3ccc4c(cnn4Cc4ccccc4)c3)ncnn2c1,
1200 nM,950 nM,CCCc1c(C(=O)OCC)cn2ncnc(Nc3ccc4c(cnn4Cc4ccccc4)c3)c12,

SMILES,IC50 [1],IC50 [2],further results
CCc1c(C(=O)NCCCn2ccnc2)cn2ncnc(Nc3ccc4c(cnn4Cc4ccccc4)c3)c12,30 nM,40 nM,
CCOC(=O)c1cn2ncnc(Nc3ccc(Oc4ccccc4)cc3)c2c1CC,820 nM,610 nM,
CCc1c(C(=O)O)cn2ncnc(Nc3ccc4c(cnn4Cc4ccccc4)c3)c12,40 nM,20 nM,
CCOC(=O)c1cn2ncnc(Nc3cccc(Br)c3)c2c1CC,3000 nM,60 nM,
CCOC(=O)c1cn2ncnc(NCc3ccccc3)c2c1CC,7200 nM,200 nM,
CCOC(=O)c1cn2ncnc(Nc3ccc4[nH]ncc4c3)c2c1CC,3300 nM,,
CCc1c(NC(=O)OCCn2ccnc2)cn2ncnc(Nc3ccc4c(cnn4Cc4ccccc4)c3)c12,40 nM,40 nM,IC50 [3]: > 25000 nM; IC50 (Focal adhesion kinase 1): > 25000 nM; IC50 [4]: > 25000 nM; IC50 [5]: > 10000 nM; IC50 [6]: > 25000 nM
